{
  "source": "patent US12649750B2",
  "about": "“Macrocyclic compounds, compositions, and methods of using thereof” (Sionna Therapeutics Inc., priority 2022, dated 2026)",
  "key": {"NBD1": {"target": "T1, NBD1 (Homo sapiens, UniProt P13569)", "T1 construct": "Purified recombinant NBD1 was produced using previously described methods; made in house", "T1 sequence (P13569 423-646 limits assumed)": "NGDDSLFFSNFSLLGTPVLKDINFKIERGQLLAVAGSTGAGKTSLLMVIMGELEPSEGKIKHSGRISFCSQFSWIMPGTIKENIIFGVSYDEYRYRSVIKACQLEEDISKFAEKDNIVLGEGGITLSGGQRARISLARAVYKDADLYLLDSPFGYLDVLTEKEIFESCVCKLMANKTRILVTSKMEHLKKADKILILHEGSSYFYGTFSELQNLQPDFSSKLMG", "experiment": "Aggregation analysis using differential static light scattering (DSLS), thermal stability of NBD1 (ΔTagg)", "type": "binding", "settings": "ΔTagg versus DMSO control, NBD1 0.2 mg/ml", "method_in_brief": "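NBD1 0.2 mg/ml, S200 buffer (50 mM Tris-HCl, 150 mM NaCl, 5 mM MgCl2, 2 mM ATP, 2 mM DTT, pH7.6) + 1% glycerol; cpd in DMSO; oil overlay. Ramp 25→70° C. at 1° C./min, DSLS images every 0.5° C. ΔTagg = Tagg (inflection) − mean DMSO Tagg.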"}, "CFTR": {"target": "T2, CFTR (Homo sapiens, UniProt P13569, DEL508-508)", "T2 construct": "Primary human bronchial epithelial cells from a ΔF508 homozygous CF donor; host or cells: primary human bronchial epithelial cells (CF-HBE), ΔF508 homozygous donor", "T2 sequence (P13569 with tags, fused parts or gaps DEL508-508)": "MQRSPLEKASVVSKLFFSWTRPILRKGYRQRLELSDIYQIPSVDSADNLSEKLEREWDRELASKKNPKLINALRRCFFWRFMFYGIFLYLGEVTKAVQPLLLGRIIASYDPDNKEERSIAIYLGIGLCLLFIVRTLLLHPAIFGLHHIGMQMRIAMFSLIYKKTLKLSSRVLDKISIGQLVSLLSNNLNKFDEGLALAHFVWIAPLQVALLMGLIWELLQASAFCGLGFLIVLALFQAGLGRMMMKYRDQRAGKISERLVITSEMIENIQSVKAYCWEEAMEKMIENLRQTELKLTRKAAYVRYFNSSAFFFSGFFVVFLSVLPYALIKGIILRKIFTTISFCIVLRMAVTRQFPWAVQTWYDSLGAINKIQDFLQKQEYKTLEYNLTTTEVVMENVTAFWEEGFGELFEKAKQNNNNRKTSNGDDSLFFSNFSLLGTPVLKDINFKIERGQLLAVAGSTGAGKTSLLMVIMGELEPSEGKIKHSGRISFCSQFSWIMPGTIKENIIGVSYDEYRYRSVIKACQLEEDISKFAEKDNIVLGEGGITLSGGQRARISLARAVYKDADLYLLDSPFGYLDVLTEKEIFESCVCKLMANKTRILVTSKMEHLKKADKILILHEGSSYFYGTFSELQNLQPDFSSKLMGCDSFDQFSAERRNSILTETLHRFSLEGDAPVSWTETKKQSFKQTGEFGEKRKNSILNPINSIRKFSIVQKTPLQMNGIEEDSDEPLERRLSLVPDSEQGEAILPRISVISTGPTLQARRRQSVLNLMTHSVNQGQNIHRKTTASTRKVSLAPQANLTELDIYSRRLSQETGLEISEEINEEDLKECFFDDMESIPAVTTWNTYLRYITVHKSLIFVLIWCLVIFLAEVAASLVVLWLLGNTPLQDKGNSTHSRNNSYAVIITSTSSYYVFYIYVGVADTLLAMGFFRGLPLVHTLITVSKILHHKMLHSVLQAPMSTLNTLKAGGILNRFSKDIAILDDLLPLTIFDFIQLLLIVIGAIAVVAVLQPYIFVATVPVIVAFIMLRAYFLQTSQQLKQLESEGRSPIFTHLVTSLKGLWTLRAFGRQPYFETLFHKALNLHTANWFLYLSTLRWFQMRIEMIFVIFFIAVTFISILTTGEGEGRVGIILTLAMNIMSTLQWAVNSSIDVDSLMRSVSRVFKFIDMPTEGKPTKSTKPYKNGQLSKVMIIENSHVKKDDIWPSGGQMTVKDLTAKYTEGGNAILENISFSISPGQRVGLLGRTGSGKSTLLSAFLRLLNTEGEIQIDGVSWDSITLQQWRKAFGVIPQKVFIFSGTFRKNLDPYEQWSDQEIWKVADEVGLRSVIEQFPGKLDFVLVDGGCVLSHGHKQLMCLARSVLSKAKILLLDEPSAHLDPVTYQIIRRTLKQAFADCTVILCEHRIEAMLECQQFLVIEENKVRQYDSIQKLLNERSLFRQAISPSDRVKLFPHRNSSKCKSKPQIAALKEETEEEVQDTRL", "experiment": "TECC24 AUC fold over DMSO @10 μM, CFTR-mediated transepithelial chloride transport in CF-HBE cells", "type": "cell-based", "settings": "test agent AUC divided by DMSO vehicle AUC, primary CF-HBE cells, ΔF508 homozygous donor, 48 hours incubation", "method_in_brief": "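Primary ΔF508-homozygous CF bronchial epithelial cells on inserts were incubated 48 h at 36.5 °C with compound in IL-13-containing medium. VT and TEER were then recorded in current-clamp mode (pH 7.4 HEPES bath) with benzamil 10 μM, forskolin 10 μM, then CFTR inhibitor-172 20 μM. The IEQ AUC between forskolin and inhibitor was divided by vehicle AUC.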"}},
  "data": [
    {"smiles": "Cn1cc2nc1-c1cc(ccc1F)Oc1c(F)cc3[nH]ccc3c1CCS(=O)(=O)CC(C)(C)CCCC2(C)c1cccc(CCC(=O)O)c1", "note": "(stereo not drawn) [Compound 77, 3-[3-(22,28-Difluoro-3,6,10,10-tetramethyl-12,12-dioxo-24-oxa-12λ6-thia-3,19,30-triazapentacyclo[23.3.1.12,5.015,23.016,20]triaconta-1(29),2(30),4,15,17,20,22,25,27-nonaen-6-yl)phenyl]propanoic Acid]", "values": [
      {"measurement": "DSLS 3D (100 μM ΔT)", "setting": "NBD1", "result": "C (a value greater than 10 °C and less than or equal to 25 °C is marked “C”)"},
      {"measurement": "TECC (AUC, 10 μM)", "setting": "CFTR", "result": "A (a TECC value less than 12 is marked “A”)"}
    ]},
    {"smiles": "[2H]C([2H])([2H])C1(c2cccc(C[C@H](C)C(=O)O)c2)CCCC2(COC2)CS(=O)(=O)CCc2c(c(F)cc3[nH]ccc23)Oc2ccc(F)c(c2)-c2nc1nn2C", "note": "(single isomer, unassigned) [Compound 130B]", "values": [
      {"measurement": "DSLS 3D (100 μM ΔT)", "setting": "NBD1", "result": "C (a value greater than 10 °C and less than or equal to 25 °C is marked “C”)"},
      {"measurement": "TECC (AUC, 10 μM)", "setting": "CFTR", "result": "C (a value between 20 and 80 is marked “C”)"}
    ]},
    {"smiles": "C[C@@H](Cc1cccc(C2(C)CCCC(C)(C)CS(=O)(=O)CCc3c(c(F)cc4[nH]ccc34)Oc3ccc(F)c(c3)-c3nc2nn3C)c1)C(=O)OCCO", "note": "(single isomer, unassigned) [Compound 140]", "values": [
      {"measurement": "DSLS 3D (100 μM ΔT)", "setting": "NBD1", "result": "C (a value greater than 10 °C and less than or equal to 25 °C is marked “C”)"},
      {"measurement": "TECC (AUC, 10 μM)", "setting": "CFTR", "result": "B (a value between 12-20 is marked “B”)"}
    ]},
    {"smiles": "CC(Cc1cccc(C2(C)CCCC(C)(C)CS(=O)(=O)CCc3c(c(F)cc4[nH]ccc34)Sc3ccc(F)c(c3)-c3nc2nn3C)c1)C(=O)O", "note": "(single isomer, unassigned) [Compound 33B, 3-[3-(22,28-difluoro-3,6,10,10-tetramethyl-12,12-dioxo-12lambda6,24-dithia-3,4,19,30-tetrazapentacyclo[23.3.1.12,5.015,23.016,20]triaconta-1(29),2(30),4,15,17,20,22,25,27-nonaen-6-yl)phenyl]-2-methyl-propanoic Acid]", "values": [
      {"measurement": "DSLS 3D (100 μM ΔT)", "setting": "NBD1", "result": "B (a value above 5 °C and less than or equal to 10 °C is marked “B”)"},
      {"measurement": "TECC (AUC, 10 μM)", "setting": "CFTR", "result": "A (a TECC value less than 12 is marked “A”)"}
    ]},
    {"smiles": "CCn1nc2nc1-c1cc(ccc1F)Oc1c(F)cc3[nH]ccc3c1CCS(=O)(=O)CC(C)(C)CCCC2c1cccc(CCC(=O)O)c1", "note": "(stereo not drawn) [Compound 62, 3-[3-(3-Ethyl-22,28-difluoro-10,10-dimethyl-12,12-dioxo-24-oxa-12λ6-thia-3,4,19,30-tetrazapentacyclo[23.3.1.12,5.015,23.016,20]triaconta-1(29),2(30),4,15,17,20,22,25,27-nonaen-6-yl)phenyl]propanoic Acid]", "values": [
      {"measurement": "DSLS 3D (100 μM ΔT)", "setting": "NBD1", "result": "C (a value greater than 10 °C and less than or equal to 25 °C is marked “C”)"},
      {"measurement": "TECC (AUC, 10 μM)", "setting": "CFTR", "result": "C (a value between 20 and 80 is marked “C”)"}
    ]},
    {"smiles": "CC(Cc1cccc(C2(CN)CCCC(C)(C)CS(=O)(=O)CCc3c(c(F)cc4[nH]ccc34)Oc3ccc(F)c(c3)-c3nc2nn3C)c1)C(=O)O", "note": "(single isomer, unassigned) [Compound 136A, 3-[3-[6-(aminomethyl)-22,28-difluoro-3,10,10-trimethyl-12,12-dioxo-24-oxa-12λ6-thia-3,4,19,30-tetrazapentacyclo-[23.3.1.12,5.015,23.016,20]triaconta-1(29),2(30),4,15,17,20,22,25,27-nonaen-6-yl]phenyl]-2-methyl-propanoic Acid]", "values": [
      {"measurement": "DSLS 3D (100 μM ΔT)", "setting": "NBD1", "result": "A (an ΔTagg value less than or equal to 5 °C is marked “A”)"},
      {"measurement": "TECC (AUC, 10 μM)", "setting": "CFTR", "result": "A (a TECC value less than 12 is marked “A”)"}
    ]},
    {"smiles": "CC1(C)CCCC(C)(c2cccc(CCC(=O)O)c2)c2coc(n2)-c2cc(ccc2F)Oc2c(F)cc3[nH]ccc3c2CCS(=O)(=O)C1", "note": "(stereo not drawn) [Compound 44, 3-[3-(22,28-Difluoro-6,10,10-trimethyl-12,12-dioxo-3,24-dioxa-12lambda6-thia-19,30-diazapentacyclo[23.3.1.12,5.015,23.016,20]triaconta-1(29),2(30),4,15,17,20,22,25,27-nonaen-6-yl)phenyl]propanoic Acid]", "values": [
      {"measurement": "DSLS 3D (100 μM ΔT)", "setting": "NBD1", "result": "C (a value greater than 10 °C and less than or equal to 25 °C is marked “C”)"},
      {"measurement": "TECC (AUC, 10 μM)", "setting": "CFTR", "result": "A (a TECC value less than 12 is marked “A”)"}
    ]},
    {"smiles": "CC1(C)CCCC(C)(c2cccc(CCC(=O)O)c2)c2coc(n2)-c2cccc(c2)Oc2c(F)cc3[nH]ccc3c2CCS(=O)(=O)C1", "note": "(stereo not drawn) [Compound 51, 3-[3-(22-Fluoro-6,10,10-trimethyl-12,12-dioxo-3,24-dioxa-12λ6-thia-19,30-diazapentacyclo[23.3.1.12,5.015,23.016,20]triaconta-1(29),2(30),4,15,17,20,22,25,27-nonaen-6-yl)phenyl]propanoic Acid]", "values": [
      {"measurement": "DSLS 3D (100 μM ΔT)", "setting": "NBD1", "result": "C (a value greater than 10 °C and less than or equal to 25 °C is marked “C”)"},
      {"measurement": "TECC (AUC, 10 μM)", "setting": "CFTR", "result": "A (a TECC value less than 12 is marked “A”)"}
    ]},
    {"smiles": "CC(CC(=O)O)c1cccc(C2CCCC(C)(C)CS(=O)(=O)CCc3c(c(F)cc4[nH]ccc34)Oc3cccc(c3)-c3ccnn32)c1", "note": "(stereo not drawn) [Compound 53, 3-[3-(23-Fluoro-11,11-dimethyl-13,13-dioxo-25-oxa-13lambda6-thia-5,6,20-triazapentacyclo[24.3.1.02,6.016,24.017,21]triaconta-1(30),2,4,16,18,21,23,26,28-nonaen-7-yl)phenyl]butanoic acid]", "values": [
      {"measurement": "DSLS 3D (100 μM ΔT)", "setting": "NBD1", "result": "A (an ΔTagg value less than or equal to 5 °C is marked “A”)"},
      {"measurement": "TECC (AUC, 10 μM)", "setting": "CFTR", "result": "A (a TECC value less than 12 is marked “A”)"}
    ]},
    {"smiles": "Cn1nc2nc1-c1cc(ccc1F)Oc1c(F)cc3[nH]ccc3c1CCS(=O)(=O)CC(C)(C)CCCC2(C)c1cccc(CC(O)C(=O)O)c1", "note": "(single isomer, unassigned) [Compound 134A, 3-[3-(22,28-Difluoro-3,6,10,10-tetramethyl-12,12-dioxo-24-oxa-12λ6-thia-3,4,19,30-tetrazapentacyclo-[23.3.1.12,5.015,23.016,20]-triaconta-1(29),2(30),4,15,17,20,22,25,27-nonaen-6-yl)phenyl]-2-hydroxy-propanoic Acid]", "values": [
      {"measurement": "DSLS 3D (100 μM ΔT)", "setting": "NBD1", "result": "C (a value greater than 10 °C and less than or equal to 25 °C is marked “C”)"},
      {"measurement": "TECC (AUC, 10 μM)", "setting": "CFTR", "result": "C (a value between 20 and 80 is marked “C”)"}
    ]},
    {"smiles": "Cn1nc2nc1-c1cc(ccc1F)Oc1c(F)cc3[nH]ccc3c1CCS(=O)(=O)CC(C)(C)COCC2(C)c1cccc(CC(=O)O)c1", "note": "(stereo not drawn) [Compound 69, 2-[3-(22,28-Difluoro-3,6,10,10-tetramethyl-12,12-dioxo-8,24-dioxa-12λ6-thia-3,4,19,30-tetrazapentacyclo[23.3.1.12,5.015,23.016,20]triaconta-1(29),2(30),4,15,17,20,22,25,27-nonaen-6-yl)phenyl]acetic Acid]", "values": [
      {"measurement": "DSLS 3D (100 μM ΔT)", "setting": "NBD1", "result": "C (a value greater than 10 °C and less than or equal to 25 °C is marked “C”)"},
      {"measurement": "TECC (AUC, 10 μM)", "setting": "CFTR", "result": "A (a TECC value less than 12 is marked “A”)"}
    ]},
    {"smiles": "CCn1nc2nc1-c1cc(ccc1F)Oc1c(F)cc3[nH]ccc3c1CCS(=O)(=O)CC(C)(C)CCCC2(C)c1cccc(CCC(=O)O)c1", "note": "(single isomer, unassigned) [Compound 91A, 3-[3-(3-ethyl-22,28-difluoro-6,10,10-trimethyl-12,12-dioxo-24-oxa-12lambda6-thia-3,4,19,30-tetrazapentacyclo[23.3.1.12,5.015,23.016,20]triaconta-1(29),2(30),4,15,17,20,22,25,27-nonaen-6-yl)phenyl]propanoic Acid]", "values": [
      {"measurement": "DSLS 3D (100 μM ΔT)", "setting": "NBD1", "result": "C (a value greater than 10 °C and less than or equal to 25 °C is marked “C”)"},
      {"measurement": "TECC (AUC, 10 μM)", "setting": "CFTR", "result": "A (a TECC value less than 12 is marked “A”)"}
    ]},
    {"smiles": "CC1(C)CCCC(C)(c2cccc(CCC(=O)O)c2)c2nc(n[nH]2)-c2cc(ccc2F)Oc2c(F)cc3[nH]ccc3c2CCS(=O)(=O)C1", "note": "(single isomer, unassigned) [Compound 63B, 3-[3-(22,28-difluoro-6,10,10-trimethyl-12,12-dioxo-24-oxa-12λ6-thia-3,4,19,30-tetrazapentacyclo[23.3.1.12,5.015,23.016,20]triaconta-1(29),2,5(30),15,17,20,22,25,27-nonaen-6-yl)phenyl]propanoic Acid]", "values": [
      {"measurement": "DSLS 3D (100 μM ΔT)", "setting": "NBD1", "result": "C (a value greater than 10 °C and less than or equal to 25 °C is marked “C”)"},
      {"measurement": "TECC (AUC, 10 μM)", "setting": "CFTR", "result": "C (a value between 20 and 80 is marked “C”)"}
    ]},
    {"smiles": "COc1ccc2cc1-c1nc(nn1C)C(C)(c1cccc(C[C@@H](C)C(=O)O)c1)CCCC(C)(C)CS(=O)(=O)CCc1c(c(F)cc3[nH]ccc13)C2=O", "note": "(single isomer, unassigned) [Compound 127B]", "values": [
      {"measurement": "DSLS 3D (100 μM ΔT)", "setting": "NBD1", "result": "A (an ΔTagg value less than or equal to 5 °C is marked “A”)"},
      {"measurement": "TECC (AUC, 10 μM)", "setting": "CFTR", "result": "A (a TECC value less than 12 is marked “A”)"}
    ]},
    {"smiles": "Cn1nc2nc1-c1cc(ccc1F)Oc1c(F)cc3[nH]ccc3c1CCS(=O)(=O)CC(C)(C)CCCC2(C)c1cccc(/C=C2\\NC(=O)NC2=O)c1", "note": "(racemic) [Compound 174, (5Z)-5-[[3-(22,28-Difluoro-3,6,10,10-tetramethyl-12,12-dioxo-24-oxa-12λ6-thia-3,4,19,30-tetrazapentacyclo[23.3.1.12,5.015,23.016,20]-triaconta-1(29),2(30),4,15,17,20,22,25,27-nonaen-6-yl)phenyl]methylene]imidazolidine-2,4-dione]", "values": [
      {"measurement": "DSLS 3D (100 μM ΔT)", "setting": "NBD1", "result": "C (a value greater than 10 °C and less than or equal to 25 °C is marked “C”)"},
      {"measurement": "TECC (AUC, 10 μM)", "setting": "CFTR", "result": "A (a TECC value less than 12 is marked “A”)"}
    ]}
  ]
}
